For test [1], the target named is T1, mouse kappa opioid receptor (mKOR) (Mus musculus, UniProt P33534).
T1 construct: Stimulation of Endogenous Mouse Kappa-Opioid Receptor in R1.G1 Cells; host or cells: R1.G1 mouse thymoma cells
As to the kind of experiment: cell-based. Conditions: for Emax: read-out: mKOR Efficacy(%).

Test [2] deals with T2, human kappa opioid receptor (hKOR) (Homo sapiens, UniProt P41145).
T2 construct: expressed in transfected cells; host or cells: HEK-293 cells, transient transfection with Fugene6
As to the kind of experiment: cell-based. Conditions: for Emax: HEK293, read-out: hKOR Efficacy(%).

The subject of another test is ICR mice. As to the kind of experiment: Acetic acid-induced writhing assay in mice. The class given is in vivo, mouse. Conditions: iv.

Square brackets hold non-standard residues; d marks the D form. Side chains are listed from the residue outwards. Peptide text beside a SMILES is read from it. dOrn = NCCC[C@@H](N)C(=O)O

T1 sequence (P33534 whole entry): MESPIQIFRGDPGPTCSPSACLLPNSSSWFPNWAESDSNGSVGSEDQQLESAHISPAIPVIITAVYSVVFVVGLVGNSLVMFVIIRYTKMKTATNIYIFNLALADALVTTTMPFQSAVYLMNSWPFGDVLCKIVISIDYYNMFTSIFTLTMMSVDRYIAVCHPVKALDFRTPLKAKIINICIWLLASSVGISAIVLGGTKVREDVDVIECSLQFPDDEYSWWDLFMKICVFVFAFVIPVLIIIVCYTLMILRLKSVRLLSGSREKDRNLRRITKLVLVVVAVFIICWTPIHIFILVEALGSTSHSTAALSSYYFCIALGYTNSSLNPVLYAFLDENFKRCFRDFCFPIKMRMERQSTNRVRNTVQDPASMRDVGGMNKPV
T2 sequence (P41145 whole entry): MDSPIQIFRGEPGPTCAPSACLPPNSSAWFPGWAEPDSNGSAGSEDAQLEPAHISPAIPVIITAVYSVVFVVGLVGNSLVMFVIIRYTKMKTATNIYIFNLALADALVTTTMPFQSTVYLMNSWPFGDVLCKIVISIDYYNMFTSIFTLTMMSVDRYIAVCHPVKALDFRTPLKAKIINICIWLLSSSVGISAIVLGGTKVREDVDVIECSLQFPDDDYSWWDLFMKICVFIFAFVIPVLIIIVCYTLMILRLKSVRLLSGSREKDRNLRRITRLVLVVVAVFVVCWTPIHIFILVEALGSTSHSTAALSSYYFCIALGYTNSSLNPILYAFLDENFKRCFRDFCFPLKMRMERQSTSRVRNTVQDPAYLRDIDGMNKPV

Take `CC(C)C[C@@H](NC(=O)[C@@H](Cc1ccccc1)NC(=O)[C@H](N)Cc1ccccc1)C(=O)N[C@H](CCCCN)C(=O)N1CCC(N)(C(=O)O)CC1` [Compound (2), D-Phe-D-Phe-D-Leu-D-Lys-[ω(4-aminopiperidine-4-carboxylic acid)]-OH]: the EC50 in test [1] came out at 0.048 nM; in test [2], 0.16 nM. Also, the Emax in test [1] is 96%; in test [2], 99%. In addition, in the test on ICR mice (15 min post-dose, mice), the “ED50 (mg/kg, iv, 15 min post-dose)” value was 0.07 mg/kg. The “% MPE (240 min post-ED90)” value with ICR mice (240 min post-ED90) is 81 ± 4%. For the same compound, the “% MPE (300 min post-ED90)” value in the test on ICR mice (300 min post-ED90) was 84 ± 4%.

`CC(C)C[C@@H](NC(=O)[C@@H](Cc1ccccc1)NC(=O)[C@H](N)Cc1ccccc1)C(=O)N[C@H](CCCNC(C)C)C(=O)N1CCCN(C(=N)N)CC1` [Compound (59), D-Phe-D-Phe-D-Leu-(δ-iPr)D-Orn-[4-amidinohomopiperazine amide]]: the EC50 in test [1] stood at 0.081 nM; in test [2], 0.08 nM. In addition, the Emax was determined as 97% in test [1] and 100% in test [2].

For the compound `CNCCC[C@@H](NC(=O)[C@@H](CC(C)C)NC(=O)[C@@H](Cc1ccccc1)NC(=O)[C@H](N)Cc1ccccc1)C(=O)N1CCCNCC1` [Compound (60), D-Phe-D-Phe-D-Leu-(δ-Me)D-Orn-[homopiperazine amide]], in test [1], the midpoint of the response, the EC50, lay at 0.045 nM and the Emax is 95%. In test [2], the EC50 worked out at 0.09 nM and the Emax amounted to 106%.

Turning to `CC(C)C[C@@H](NC(=O)[C@@H](Cc1ccccc1)NC(=O)[C@H](N)Cc1ccccc1)C(=O)N[C@H](CCCNC(C)C)C(=O)N1CCCNCC1` [Compound (61), D-Phe-D-Phe-D-Leu-(δ-iPr)D-Orn-[homopiperazine amide]], in test [1], the EC50 was found to be 0.033 nM and the Emax amounted to 96%. Besides, in test [2], the concentration giving a half-maximal response (EC50) is 0.07 nM and the Emax amounted to 98%.

For `CC(C)C[C@@H](NC(=O)[C@@H](Cc1ccccc1)NC(=O)[C@H](N)Cc1ccccc1)C(=O)N[C@H](CCCCN)C(=O)NCC1OCCO1` [Compound (62)], in test [1], the midpoint of the response, the EC50, lay at 0.147 nM and the Emax came to 85%. Also, in test [2], the response was half-maximal at 0.021 nM (EC50) and the Emax worked out at 98%.

Turning to `CC(C)C[C@@H](NC(=O)[C@@H](Cc1ccccc1)NC(=O)[C@H](N)Cc1ccccc1)C(=O)N[C@H](CCCCN)C(=O)N1CCN(c2ncccn2)CC1` [Compound (63), D-Phe-D-Phe-D-Leu-D-Lys-[2-(piperazin-1-yl)pyrimidine amide]], the EC50 was found to be 0.12 nM in test [1] and 0.0073 nM in test [2]. Further, the Emax was 78% in test [1] and 98% in test [2].

Take `CC(C)C[C@@H](NC(=O)[C@@H](Cc1ccccc1)NC(=O)[C@H](N)Cc1ccccc1)C(=O)N[C@H](CCCCN)C(=O)N1CCN(c2cnccn2)CC1` [Compound (64), D-Phe-D-Phe-D-Leu-D-Lys-[2-(piperazin-1-yl)pyrazine amide]]: in test [1], the Emax was determined as 85%. Moreover, in test [2], a half-maximal effect (EC50) was put at 0.0293 nM and the Emax was determined as 100%.

In the case of `CC(C)C[C@@H](NC(=O)[C@@H](Cc1ccccc1)NC(=O)[C@H](N)Cc1ccccc1)C(=O)N[C@H](CCCCN)C(=O)N1CCN(c2ccccn2)CC1` [Compound (65), D-Phe-D-Phe-D-Leu-D-Lys-[1-(pyridin-2-yl)piperazine amide]], the EC50 in test [1] was found to be 0.0471 nM; in test [2], 0.0059 nM. For the same compound, the Emax in test [1] was 89%; in test [2], 100%.

On to `CC(C)C[C@@H](NC(=O)[C@@H](Cc1ccccc1)NC(=O)[C@H](N)Cc1ccccc1)C(=O)N[C@H](CCCCN)C(=O)N1CCN(c2nccs2)CC1` [Compound (66), D-Phe-D-Phe-D-Leu-D-Lys-[2-(piperazin-1-yl)thiazole amide]], for which, in test [1], the midpoint of the response, the EC50, lay at 0.084 nM and the Emax was found to be 85%. Also, in test [2], the response was half-maximal at 0.031 nM (EC50) and the Emax is 92%.

`CC(C)C[C@@H](NC(=O)[C@@H](Cc1ccccc1)NC(=O)[C@H](N)Cc1ccccc1)C(=O)N[C@H](CCCCN)C(=O)N1CCN(S(=O)(=O)N(C)C)CC1` [Compound (67), D-Phe-D-Phe-D-Leu-D-Lys-[N,N-dimethylpiperazine-1-sulfonamide amide]]: in test [1], it took 0.193 nM to reach a half-maximal effect (EC50) and the Emax was 86%. For the same compound, in test [2], the response was half-maximal at 0.0194 nM (EC50) and the Emax stood at 101%.

Turning to `CC(C)C[C@@H](NC(=O)[C@@H](Cc1ccccc1)NC(=O)[C@H](N)Cc1ccccc1)C(=O)N[C@H](CCCCN)C(=O)N1CCN(S(C)(=O)=O)CC1` [Compound (68), D-Phe-D-Phe-D-Leu-D-Lys-[1-(methylsulfonyl)piperazine amide]], in test [1], the EC50 was determined as 0.246 nM and the Emax worked out at 82%. Moreover, in test [2], the EC50 worked out at 0.0073 nM and the Emax came out at 100%.

As for `CC(C)C[C@@H](NC(=O)[C@@H](Cc1ccccc1)NC(=O)[C@H](N)Cc1ccccc1)C(=O)N[C@H](CCCCN)C(=O)N1CCN(S(=O)(=O)c2ccccc2)CC1` [Compound (69), D-Phe-D-Phe-D-Leu-D-Lys-[1-(phenylsulfonyl)piperazine amide]], in test [1], the EC50 came to 0.53 nM and the Emax worked out at 87%. For the same compound, in test [2], the EC50 was 0.011 nM and the Emax stood at 101%.

As for `CC(C)C[C@@H](NC(=O)[C@@H](Cc1ccccc1)NC(=O)[C@H](N)Cc1ccccc1)C(=O)N[C@H](CCCCN)C(=O)N1CCN(C(=O)c2ccccc2)CC1` [Compound (70), D-Phe-D-Phe-D-Leu-D-Lys-[phenyl(piperazin-1-yl)methanone amide]], in test [1], the midpoint of the response, the EC50, lay at 0.348 nM and the Emax is 92%. Besides, in test [2], a half-maximal effect (EC50) was put at 0.012 nM and the Emax was found to be 94%.

In the case of `CC(C)C[C@@H](NC(=O)[C@@H](Cc1ccccc1)NC(=O)[C@H](N)Cc1ccccc1)C(=O)N[C@H](CCCCN)C(=O)N1CCS(=O)(=O)CC1` [Compound (71), D-Phe-D-Phe-D-Leu-D-Lys-[thiolmorpholine-1,1-dioxide amide]], the EC50 turned out to be 0.192 nM in test [1] and 0.0306 nM in test [2]. Besides, the Emax worked out at 89% in test [1] and 103% in test [2].

As for `CC(C)C[C@@H](NC(=O)[C@@H](Cc1ccccc1)NC(=O)[C@H](N)Cc1ccccc1)C(=O)N[C@H](CCCCN)C(=O)NCc1ccc(C(F)(F)F)nc1` [Compound (72), D-Phe-D-Phe-D-Leu-D-Lys-[6-trifluoromethyl-3-aminomethylpyridine amide]], in test [1], the midpoint of the response, the EC50, lay at 0.485 nM and the Emax was determined as 85%. For the same compound, in test [2], the EC50 amounted to 0.0667 nM and the Emax was 95%.

With `CC(C)C[C@@H](NC(=O)[C@@H](Cc1ccccc1)NC(=O)[C@H](N)Cc1ccccc1)C(=O)N[C@H](CCCCN)C(=O)NCC1CCOCC1` [Compound (73)], in test [1], the EC50 came to 0.633 nM and the Emax worked out at 89%. Further, in test [2], a half-maximal effect (EC50) was put at 0.0034 nM and the Emax is 99%.

Take `CC(C)C[C@@H](NC(=O)[C@@H](Cc1ccccc1)NC(=O)[C@H](N)Cc1ccccc1)C(=O)N[C@H](CCCCN)C(=O)NCc1ccc2[nH]c(=O)[nH]c2c1` [Compound (74), D-Phe-D-Phe-D-Leu-D-Lys-[5-(aminomethyl)-1H-benzo[d]imidazol-2(3H)-one amide]]: the values for the EC50 in test [1] and in test [2] were 0.072 nM and 0.0063 nM, respectively. Also, the Emax in test [1] turned out to be 87%; in test [2], 99%.

On to `CC(C)C[C@@H](N)C(=O)N[C@H](CCCN)C(=O)N[C@@H](CCCCNC(=O)[C@@H](CCCN)NC(=O)[C@@H](CC(C)C)NC(=O)[C@@H](Cc1ccccc1)NC(=O)[C@H](N)Cc1ccccc1)C(=O)O` [Compound (76), D-Phe-D-Phe-D-Leu-D-Orn-[eLys(D-Orn-D-Leu-H)]-OH], for which the figures for the EC50 in test [1] and in test [2] were 1.07 nM and 0.26 nM, respectively. In addition, the figures for the Emax in test [1] and in test [2] were 96% and 83%, respectively.

As to `CC(C)C[C@@H](NC(=O)[C@H](N)Cc1ccccc1)C(=O)N[C@H](CCCN)C(=O)N[C@@H](CCCCNC(=O)[C@@H](CCCN)NC(=O)[C@@H](CC(C)C)NC(=O)[C@@H](Cc1ccccc1)NC(=O)[C@H](N)Cc1ccccc1)C(=O)O` [Compound (78)], in test [1], the EC50 is 0.24 nM. In test [2], the Emax is 95%.

Regarding `CC(C)C[C@@H](NC(=O)[C@@H](Cc1ccccc1)NC(=O)[C@H](N)Cc1ccccc1)C(=O)N[C@H](CCCN)C(=O)NCCCC[C@H](NC(=O)[C@H](N)CCCN)C(=O)O` [Compound (79)], in test [1], the EC50 turned out to be 0.08 nM and the Emax was found to be 101%. Further, the EC50 in test [2] came to 0.13 nM.

Take `CC(C)C[C@@H](NC(=O)[C@@H](Cc1ccccc1)NC(=O)[C@H](N)Cc1ccccc1)C(=O)N[C@H](CCCN)C(=O)NCCCC[C@H](NC(=O)[C@@H](CCCN)NC(=O)[C@@H](CC(C)C)NC(=O)[C@@H](Cc1ccccc1)NC(=O)[C@H](N)Cc1ccccc1)C(N)=O` [Compound (80)] (H-[dF][dF][dL][dOrn]K([dOrn-dL-dF-dF])-NH2): in test [1], a half-maximal response (EC50) required 1.3 nM and the Emax stood at 91%. Moreover, the EC50 in test [2] was 0.25 nM.

Turning to `CC(C)C[C@@H](NC(=O)[C@@H](Cc1ccccc1)NC(=O)[C@H](N)Cc1ccccc1)C(=O)N[C@H](CCCN)C(=O)NCCCC[C@H](NC(=O)[C@H](N)CCCN)C(=O)N1CCNCC1` [Compound (81)], in test [1], the EC50 was found to be 0.05 nM and the Emax was 96%. In test [2], it took 0.28 nM to reach a half-maximal effect (EC50) and the Emax stood at 96%.

Turning to `CC(C)C[C@@H](NC(=O)[C@@H](Cc1ccccc1)NC(=O)[C@H](N)Cc1ccccc1)C(=O)N[C@H](CCCN)C(=O)N1CCOC(C(=O)O)C1` (stereo partly drawn) [Compound (90), D-Phe-D-Phe-D-Leu-D-Orn-[R/S-2-carboxymorpholine]-OH], in test [1], a half-maximal response (EC50) required 0.178 nM and the Emax worked out at 100%. Besides, in test [2], the EC50 was 0.16 nM and the Emax is 100%.

Values taken from patent US7713937B2, “Synthetic peptide amides and dimeric forms thereof” (Cara Therapeutics, Inc., priority 2006, dated 2010).
